From article PMC10894237, “KDM3B inhibitors disrupt the oncogenic activity of PAX3-FOXO1 in fusion-positive rhabdomyosarcoma” (Nature Communications, 2024)

Tests used:
KDM3B [1] = biological target: T1, KDM3B (Homo sapiens, UniProt Q7LBC6); assay: cell-free TR-FRET demethylase inhibition assay (Eurofins); type: biochemical
7250 = assay: cells; design: 72 h cell growth/viability dose-response in pediatric solid tumour lines and primary fibroblasts; settings: 72 h, primary human fibroblast; read-out: P3FI-63 EC50 (72 hr), fibroblast
Source text: (§1) The half-maximal effective concentrations (EC50) of P3FI-63 on FP-RMS cell lines RH4, RH30, and SCMC were in the single digit µM range (Fig. 1E). Next, we tested other pediatric solid cancer lines to determine broader applicability of P3FI-63.

A673 = assay: cells; design: 72 h cell growth/viability dose-response in pediatric solid tumour lines and primary fibroblasts; settings: Homo sapiens, A673, 72 h; read-out: P3FI-63 EC50 (72 hr)
Source text: as §1

CTR = assay: cells; design: 72 h cell growth/viability dose-response in pediatric solid tumour lines and primary fibroblasts; settings: Fibroblast, 72 h; read-out: P3FI-63 EC50 (72 hr)
Source text: as §1

HU09 = assay: cells; design: 72 h cell growth/viability dose-response in pediatric solid tumour lines and primary fibroblasts; settings: Fibroblast, 72 h; read-out: P3FI-63 EC50 (72 hr)
Source text: as §1

OSA = assay: cells; design: 72 h cell growth/viability dose-response in pediatric solid tumour lines and primary fibroblasts; settings: Fibroblast, 72 h; read-out: P3FI-63 EC50 (72 hr)
Source text: as §1

TC-32 = assay: cells; design: 72 h cell growth/viability dose-response in pediatric solid tumour lines and primary fibroblasts; settings: Homo sapiens, TC-32, 72 h; read-out: P3FI-63 EC50 (72 hr)
Source text: as §1

KDM3B [2] = biological target: T1, KDM3B; assay: SPR (Biacore T200); also WaterLOGSY and CPMG ligand-observed NMR, and enzyme inhibition (TR-FRET); type: binding; design: full-length KDM3B (His6-Avi-KDM3B) for SPR; enzymatic domain (truncated) for NMR

T1 sequence (Q7LBC6 2-1761): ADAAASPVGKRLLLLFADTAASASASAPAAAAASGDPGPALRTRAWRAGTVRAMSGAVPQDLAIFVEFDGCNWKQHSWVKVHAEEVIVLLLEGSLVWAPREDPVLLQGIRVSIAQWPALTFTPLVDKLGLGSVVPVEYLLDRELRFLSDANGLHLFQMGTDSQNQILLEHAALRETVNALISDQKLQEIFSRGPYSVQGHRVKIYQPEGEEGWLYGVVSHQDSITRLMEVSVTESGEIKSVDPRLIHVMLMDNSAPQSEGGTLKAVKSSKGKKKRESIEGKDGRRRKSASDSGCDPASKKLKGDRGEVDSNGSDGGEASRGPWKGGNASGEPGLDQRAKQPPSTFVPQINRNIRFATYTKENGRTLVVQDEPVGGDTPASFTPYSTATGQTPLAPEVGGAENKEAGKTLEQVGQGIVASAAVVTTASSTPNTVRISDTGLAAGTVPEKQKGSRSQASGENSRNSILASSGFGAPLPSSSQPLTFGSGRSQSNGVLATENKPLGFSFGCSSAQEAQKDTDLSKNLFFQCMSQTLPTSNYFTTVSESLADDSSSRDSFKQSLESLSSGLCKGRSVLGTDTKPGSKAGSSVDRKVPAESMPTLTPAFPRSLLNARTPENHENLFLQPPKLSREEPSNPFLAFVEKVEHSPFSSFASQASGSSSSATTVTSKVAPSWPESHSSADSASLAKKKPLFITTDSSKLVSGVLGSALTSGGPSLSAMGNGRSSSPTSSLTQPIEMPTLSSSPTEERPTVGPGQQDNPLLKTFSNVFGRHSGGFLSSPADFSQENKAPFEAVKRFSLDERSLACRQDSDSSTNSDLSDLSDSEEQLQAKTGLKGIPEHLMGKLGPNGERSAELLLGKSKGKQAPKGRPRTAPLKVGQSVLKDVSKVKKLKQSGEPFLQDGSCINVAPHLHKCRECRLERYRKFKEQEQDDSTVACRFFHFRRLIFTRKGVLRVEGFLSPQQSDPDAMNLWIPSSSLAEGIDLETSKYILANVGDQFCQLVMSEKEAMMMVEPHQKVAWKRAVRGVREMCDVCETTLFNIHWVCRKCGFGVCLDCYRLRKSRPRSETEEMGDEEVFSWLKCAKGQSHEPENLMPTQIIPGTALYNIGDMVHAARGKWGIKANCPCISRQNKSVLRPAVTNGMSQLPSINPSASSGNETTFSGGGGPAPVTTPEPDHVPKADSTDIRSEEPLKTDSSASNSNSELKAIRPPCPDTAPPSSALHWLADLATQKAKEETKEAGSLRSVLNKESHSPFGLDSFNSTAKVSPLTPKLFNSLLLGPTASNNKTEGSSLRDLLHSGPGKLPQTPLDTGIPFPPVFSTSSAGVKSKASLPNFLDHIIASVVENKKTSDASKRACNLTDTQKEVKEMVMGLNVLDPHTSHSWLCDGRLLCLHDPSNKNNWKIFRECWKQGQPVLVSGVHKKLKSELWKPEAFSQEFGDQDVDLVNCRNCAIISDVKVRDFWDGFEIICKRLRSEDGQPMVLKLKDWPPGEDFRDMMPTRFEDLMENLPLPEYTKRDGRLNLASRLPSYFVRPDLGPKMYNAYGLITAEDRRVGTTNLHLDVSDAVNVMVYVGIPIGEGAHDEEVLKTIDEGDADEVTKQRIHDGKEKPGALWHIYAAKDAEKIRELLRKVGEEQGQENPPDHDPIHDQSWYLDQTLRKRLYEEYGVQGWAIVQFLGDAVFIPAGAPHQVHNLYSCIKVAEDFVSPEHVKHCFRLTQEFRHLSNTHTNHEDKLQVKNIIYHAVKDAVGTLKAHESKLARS

IC50 (KDM3B [1]) [µM] | Kd (KDM3B [2]) [µM] | Compound | EC50 7250 [µM] | EC50 (A673) [µM] | EC50 (CTR) [µM] | EC50 (HU09) [µM] | EC50 (OSA) [µM] | EC50 (TC-32) [µM]
7 |  | Cc1cc(C)cc(C(=O)NNC(=O)c2ccccn2)c1 [P3FI-63] | 6.62 | 3.7 | 2.92 | 3.1 | 7.5 | 1.7
 | 7.68 | O=C(NNc1ccccn1)c1ccccn1 [P3FI-90] |  |  |  |  |  | 
